Measurements: patent US11597739B2, “Enhancing CD8+ T cells for adoptive T cell therapy by inhibiting PTPN1 (PTP1B) and PTPN2 (TC-PTP)” (The Royal Institution for the Advancement of …, priority 2017, dated 2023)

System: human T cells
Assay: Treatment of human T cells with K884: central memory differentiation and cytokine production
Format: cell-based
Protocol: Calculate the specific cell lysis as follows: Specific cell lysis=((Sample−BF)/(AF−BF))×100 10) Flow Cytometry 1. Cell Activation • a. Wash cells with 1 ml of culture medium; • b. Centrifuge cells for 5 min at 300 g; • c. Resuspend cells in culture medium; • d. Prepare 2× solutions (negative control with only culture medium, Positive condition with 50 ng/mL of PMA and 500 ng/mL of lonomycin); • e. Plate 100 μL of cell suspension in 96 well plates (U-bottom); • f. Add 100 μL of 2× solutions in appropriate wells; • g. Incubate 4 hours at 37 C, 5% CO2. 2. Extracellular Staining • a. Record cell quantity transfers per tube; • b. Wash cells with 1 mL of PBS+2% FBS; • c. Centrifuge cells for 5 min at 300 g; • d. Empty tubes by inversion; • e. Add the antibodies for extracellular staining; • f. Incubate 20 min at 4° C.; • g. Wash cells with 1 mL of PBS+2% FBS; • h. Centrifuge cells for 5 min at 300 g; • i. Empty tubes by inversion; • j. Ressuspend cells in 100 μL fixation/permeabilisation buffer (eBioscience, #00-5223-56, 1 volume of concentrate buffer+3 volumes of diluent buffer) • k. Incubate 30 min at room temperature or overnight at 4° C. 3. Intracellular Staining • a. Wash cells with 1 mL of permeabilization buffer (eBioscience, #00-8333-56, dilution 1/10 in ddH2O); • b. Centrifuge cells for 5 min at 300 g; • c. Empty tubes by inversion; • d. Add the intracellular antibodies; • e. Incubate 1 hour at 4° C.; • f. Wash cells with 1 mL of permeabilization buffer; • g. Centrifuge cells for 5 min at 300 g; • h. Empty tubes by inversion; • i. Keep tubes at 4° C. shelter from light 4. Human PBMC Isolation by Ficoll • a. Prepare 50 ml tubes; • b. Transfer blood into 50 ml tubes, with maximum of 17.5 ml per tube; • c. Add sterile PBS to dilute blood to reach 35 ml; • d. Use a dropped-in Pasteur pipet used as a tunnel; add 15 ml of Ficoll; • e. Gently install the tubes and centrifuge at 1000 g for 20 min, RT without brakes; • f. Using a 25 ml pipet, harvest the interface ring of PBMC without too much Ficoll and transfer into a 50 ml tube (maximum 15 ml per tube); • g. […]

[1] = 14 days with IL-7 and IL-15, restimulated with PMA and Ionomycin 4 hours

CCOC(=O)c1cc2cc(C(F)(F)P(=O)(O)O)c(Br)cc2s1 [Ex. 1, ((6-BROMO-2-(ETHOXYCARBONYL)BENZO[B]THIOPHEN-5-YL)DIFLUOROMETHYL)PHOSPHONATE]
TNFα secretion [1]: enhancement of the proinflammatory cytokine TNFα secretion | production of IFNγ [1]: production of IFNγ is maintained | response of peripheral blood human CD8 T cells to treatment (human CD8 T cells compared to mouse CD8 T cells): respond in equivalent manner to mouse CD8 T cells
